Data on three compounds can be found in US11912663B2, “Multi-targeted tyrosine kinase inhibitors and their pharmaceutical uses” (Shanghai AB PharmaTech Ltd., priority 2021, dated 2024).

hERG potassium channels, sequence (Q12809 whole entry): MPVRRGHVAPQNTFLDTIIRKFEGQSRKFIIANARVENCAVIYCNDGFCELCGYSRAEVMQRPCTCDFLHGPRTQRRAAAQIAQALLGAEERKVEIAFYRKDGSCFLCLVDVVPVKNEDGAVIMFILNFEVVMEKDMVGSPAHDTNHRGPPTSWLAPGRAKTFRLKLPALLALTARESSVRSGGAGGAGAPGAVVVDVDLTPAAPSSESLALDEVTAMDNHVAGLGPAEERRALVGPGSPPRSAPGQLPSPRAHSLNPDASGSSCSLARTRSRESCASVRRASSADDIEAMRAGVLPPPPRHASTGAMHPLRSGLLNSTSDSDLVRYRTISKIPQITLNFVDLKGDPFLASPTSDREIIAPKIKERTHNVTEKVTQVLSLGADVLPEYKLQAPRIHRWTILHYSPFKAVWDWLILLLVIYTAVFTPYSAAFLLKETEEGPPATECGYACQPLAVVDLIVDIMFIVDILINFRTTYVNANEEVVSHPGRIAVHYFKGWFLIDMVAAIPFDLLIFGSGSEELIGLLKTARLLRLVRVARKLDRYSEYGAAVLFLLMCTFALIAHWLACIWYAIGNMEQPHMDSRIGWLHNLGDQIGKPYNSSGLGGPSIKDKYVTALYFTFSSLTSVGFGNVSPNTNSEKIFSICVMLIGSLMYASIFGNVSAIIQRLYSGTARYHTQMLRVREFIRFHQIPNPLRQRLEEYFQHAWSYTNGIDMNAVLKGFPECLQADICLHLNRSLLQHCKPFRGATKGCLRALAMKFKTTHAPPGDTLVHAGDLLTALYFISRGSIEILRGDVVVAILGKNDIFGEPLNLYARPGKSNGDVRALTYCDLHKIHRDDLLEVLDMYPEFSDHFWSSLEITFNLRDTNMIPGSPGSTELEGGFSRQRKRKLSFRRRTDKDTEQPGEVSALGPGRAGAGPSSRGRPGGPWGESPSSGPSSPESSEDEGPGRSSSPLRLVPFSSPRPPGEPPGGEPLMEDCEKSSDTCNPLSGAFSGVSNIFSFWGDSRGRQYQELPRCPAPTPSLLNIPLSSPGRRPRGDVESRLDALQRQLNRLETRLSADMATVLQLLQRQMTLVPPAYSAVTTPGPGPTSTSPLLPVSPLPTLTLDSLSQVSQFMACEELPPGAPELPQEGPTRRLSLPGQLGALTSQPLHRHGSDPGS
FGFR2, sequence (P21802 22-821): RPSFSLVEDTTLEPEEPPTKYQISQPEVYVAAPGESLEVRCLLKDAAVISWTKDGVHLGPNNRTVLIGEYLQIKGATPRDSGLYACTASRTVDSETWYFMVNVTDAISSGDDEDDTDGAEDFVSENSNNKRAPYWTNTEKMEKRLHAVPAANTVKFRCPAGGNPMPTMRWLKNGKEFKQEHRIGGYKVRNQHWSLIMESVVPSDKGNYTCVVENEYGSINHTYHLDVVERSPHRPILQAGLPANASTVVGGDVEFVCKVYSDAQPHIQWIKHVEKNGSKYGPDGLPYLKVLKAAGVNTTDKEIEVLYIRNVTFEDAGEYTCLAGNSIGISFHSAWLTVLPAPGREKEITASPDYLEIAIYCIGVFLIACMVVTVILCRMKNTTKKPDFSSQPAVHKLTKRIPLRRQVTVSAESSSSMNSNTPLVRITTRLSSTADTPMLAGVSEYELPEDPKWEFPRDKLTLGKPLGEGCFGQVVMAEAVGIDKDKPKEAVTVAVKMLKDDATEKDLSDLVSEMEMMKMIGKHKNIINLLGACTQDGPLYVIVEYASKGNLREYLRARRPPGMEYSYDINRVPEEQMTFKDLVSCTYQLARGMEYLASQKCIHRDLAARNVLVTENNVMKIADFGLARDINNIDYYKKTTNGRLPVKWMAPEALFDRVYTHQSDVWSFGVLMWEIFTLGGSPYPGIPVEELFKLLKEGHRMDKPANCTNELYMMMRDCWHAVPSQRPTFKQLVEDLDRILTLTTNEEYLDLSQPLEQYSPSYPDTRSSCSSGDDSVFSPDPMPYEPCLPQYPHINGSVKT
RET, sequence (P07949 29-1114): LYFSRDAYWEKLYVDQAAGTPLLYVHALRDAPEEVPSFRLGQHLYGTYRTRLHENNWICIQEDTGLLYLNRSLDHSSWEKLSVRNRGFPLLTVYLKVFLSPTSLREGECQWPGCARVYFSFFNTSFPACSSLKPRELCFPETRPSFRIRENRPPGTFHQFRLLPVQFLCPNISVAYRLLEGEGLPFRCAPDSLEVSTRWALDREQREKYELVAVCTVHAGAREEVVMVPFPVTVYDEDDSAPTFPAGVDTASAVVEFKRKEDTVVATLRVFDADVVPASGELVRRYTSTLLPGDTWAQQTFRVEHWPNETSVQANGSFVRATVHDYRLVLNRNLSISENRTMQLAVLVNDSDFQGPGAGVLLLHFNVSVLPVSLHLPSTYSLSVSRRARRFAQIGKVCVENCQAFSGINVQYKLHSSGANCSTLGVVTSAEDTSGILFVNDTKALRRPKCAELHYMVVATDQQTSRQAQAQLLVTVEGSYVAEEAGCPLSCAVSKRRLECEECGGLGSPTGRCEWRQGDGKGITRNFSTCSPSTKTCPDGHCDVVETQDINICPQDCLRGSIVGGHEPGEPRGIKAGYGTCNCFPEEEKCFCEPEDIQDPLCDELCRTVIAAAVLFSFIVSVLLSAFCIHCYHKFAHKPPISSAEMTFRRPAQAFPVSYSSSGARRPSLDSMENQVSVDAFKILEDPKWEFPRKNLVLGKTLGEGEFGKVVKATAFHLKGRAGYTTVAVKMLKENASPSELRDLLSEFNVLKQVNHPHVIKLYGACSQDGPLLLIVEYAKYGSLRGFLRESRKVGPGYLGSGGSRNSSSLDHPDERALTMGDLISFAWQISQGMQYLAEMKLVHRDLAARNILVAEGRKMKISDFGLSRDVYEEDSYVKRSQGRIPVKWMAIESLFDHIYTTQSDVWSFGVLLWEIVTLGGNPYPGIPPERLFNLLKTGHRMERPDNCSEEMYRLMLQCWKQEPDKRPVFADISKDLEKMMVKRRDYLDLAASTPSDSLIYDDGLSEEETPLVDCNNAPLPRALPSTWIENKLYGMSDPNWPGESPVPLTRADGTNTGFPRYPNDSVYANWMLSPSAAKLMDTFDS

In one data set the test system is BXPC3, SNU16, Hep3B 2.1-7 subcutaneous tumors. The experiment in a line: tumor suppression in nude mice with subcutaneously transplanted tumors. It counts as in vivo. The following applies: BXPC3, SNU16, Hep3B 2.1-7 transplants, within 3-4 weeks. From the text: These preferred compounds (e.g., IIIb-08, IIIb-09, IIIb-45, IIIb-50, IIIb-55, IIIb-56, IIIb-57, IIIb-58, IIIb-60, IIIb-61, IIIb-65) are currently being used to […] in nude mice subcutaneously transplanted with pancreatic cancer cell line (BXPC3), gastric cancer cell line (SNU16), liver cancer cell line (Hep3B 2.1-7) and other tumor suppressive effects have been observed in vivo, the tumor suppression rate of subcutaneous tumors in nude mice could reach 80-110% within 3-4 weeks. […] Therefore, the preferred compounds “IIIb-08, IIIb-09, IIIb-45, IIIb-50, IIIb-55, IIIb-56, IIIb-57, IIIb-58, IIIb-60, IIIb-61, IIIb-65” designed and synthesized by the present invention not only have better inhibitory activity, but also have better safety and drug-forming properties, which are valuable for further preclinical studies such as pharmacotoxicology and clinical trials.
For the compound `NC(=O)c1cc2c(Oc3c(F)cc(NC(=O)NC4CC4)c(Cl)c3F)ccnc2cc1OCCF` [IIIb-55], the “tumor suppression rate of subcutaneous tumors” value is given as 80-110%.
Consider `COc1cc2nccc(Oc3c(F)cc(NC(=O)NC4CC4)c(Cl)c3F)c2cc1C(=O)NCCC#N` [IIIb-50], for which the “tumor suppression rate of subcutaneous tumors” value is given as 80-110%.
On the same count and under the same terms, the value for `COc1cc2nccc(Oc3c(F)cc(NC(=O)NC4CC4)c(Cl)c3F)c2cc1C(=O)NCC#N` [IIIb-45] was 80-110%.

The next data set concerns hepatocellular carcinoma cell line (Hep3B 2.1-7). The experiment in a line: tumor cell proliferation inhibition (CTG), hepatocellular carcinoma cell line. It is filed as cell-based. As to conditions: Homo sapiens, 72 hours.
What is called IC50 is the concentration at which inhibition is half-maximal. Regarding `NC(=O)c1cc2c(Oc3c(F)cc(NC(=O)NC4CC4)c(Cl)c3F)ccnc2cc1OCCF` [IIIb-55], the IC50 is below 2500 nM.
Same read-out and setting: with `COc1cc2nccc(Oc3c(F)cc(NC(=O)NC4CC4)c(Cl)c3F)c2cc1C(=O)NCCC#N` [IIIb-50] the figure was below 2500 nM; with `COc1cc2nccc(Oc3c(F)cc(NC(=O)NC4CC4)c(Cl)c3F)c2cc1C(=O)NCC#N` [IIIb-45], below 2500 nM.

The target in a further data set is VEGFR1 (FLT1) (Homo sapiens (Human), UniProt P17948). Description: kinase inhibition, Mobility-Shift Assay. It counts as biochemical. The following applies: 278 μM ATP.
VEGFR1 (FLT1), sequence (P17948 27-1338): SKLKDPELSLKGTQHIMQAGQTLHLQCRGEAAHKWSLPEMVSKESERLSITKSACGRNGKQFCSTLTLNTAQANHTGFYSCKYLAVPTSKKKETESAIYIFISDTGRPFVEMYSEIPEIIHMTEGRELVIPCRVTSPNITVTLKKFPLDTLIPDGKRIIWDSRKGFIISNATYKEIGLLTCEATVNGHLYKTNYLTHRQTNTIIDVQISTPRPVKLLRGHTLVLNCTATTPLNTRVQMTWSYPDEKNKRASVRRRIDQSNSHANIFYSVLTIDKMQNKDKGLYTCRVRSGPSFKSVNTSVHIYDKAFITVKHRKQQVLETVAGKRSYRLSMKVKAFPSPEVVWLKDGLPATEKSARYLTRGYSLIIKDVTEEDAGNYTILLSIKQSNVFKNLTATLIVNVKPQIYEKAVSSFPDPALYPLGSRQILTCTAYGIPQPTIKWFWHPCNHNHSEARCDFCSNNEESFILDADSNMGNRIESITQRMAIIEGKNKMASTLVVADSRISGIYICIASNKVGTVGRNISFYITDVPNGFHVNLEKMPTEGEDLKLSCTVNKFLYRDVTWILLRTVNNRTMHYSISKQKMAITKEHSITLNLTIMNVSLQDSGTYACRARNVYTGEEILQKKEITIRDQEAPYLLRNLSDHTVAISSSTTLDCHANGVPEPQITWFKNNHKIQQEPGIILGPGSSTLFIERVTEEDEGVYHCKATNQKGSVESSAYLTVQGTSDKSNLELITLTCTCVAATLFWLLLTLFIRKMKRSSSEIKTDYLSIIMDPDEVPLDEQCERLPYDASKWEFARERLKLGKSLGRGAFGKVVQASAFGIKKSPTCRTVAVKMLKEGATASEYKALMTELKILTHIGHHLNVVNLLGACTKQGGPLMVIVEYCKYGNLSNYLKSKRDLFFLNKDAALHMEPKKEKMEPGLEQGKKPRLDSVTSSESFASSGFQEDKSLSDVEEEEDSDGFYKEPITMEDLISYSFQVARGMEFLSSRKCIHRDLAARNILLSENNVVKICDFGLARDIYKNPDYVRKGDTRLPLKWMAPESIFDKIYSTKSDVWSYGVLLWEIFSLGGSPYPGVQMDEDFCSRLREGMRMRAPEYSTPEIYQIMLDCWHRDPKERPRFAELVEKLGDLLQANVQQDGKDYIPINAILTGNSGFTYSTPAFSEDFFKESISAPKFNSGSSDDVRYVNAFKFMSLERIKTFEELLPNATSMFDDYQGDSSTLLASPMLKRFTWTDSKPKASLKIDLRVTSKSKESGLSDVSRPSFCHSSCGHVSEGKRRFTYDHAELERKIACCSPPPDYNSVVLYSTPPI
Regarding `NC(=O)c1cc2c(Oc3c(F)cc(NC(=O)NC4CC4)c(Cl)c3F)ccnc2cc1OCCF` [IIIb-55], the concentration for half-maximal inhibition (IC50) was below 5 nM.
`COc1cc2nccc(Oc3c(F)cc(NC(=O)NC4CC4)c(Cl)c3F)c2cc1C(=O)NCCC#N` [IIIb-50]: the IC50 is below 5 nM.
`COc1cc2nccc(Oc3c(F)cc(NC(=O)NC4CC4)c(Cl)c3F)c2cc1C(=O)NCC#N` [IIIb-45]: the IC50 was below 5 nM.

The subject of a further data set is prostatic cancer (PC-3). Description: tumor cell proliferation inhibition (CTG), PC-3. It counts as cell-based. As to conditions: 72 hours.
As for `NC(=O)c1cc2c(Oc3c(F)cc(NC(=O)NC4CC4)c(Cl)c3F)ccnc2cc1OCCF` [IIIb-55], the concentration for half-maximal inhibition (IC50) was in the range of 5000 to 10000 nM.
On the same count and under the same terms, the value for `COc1cc2nccc(Oc3c(F)cc(NC(=O)NC4CC4)c(Cl)c3F)c2cc1C(=O)NCCC#N` [IIIb-50] was 5000 to 10000 nM; that for `COc1cc2nccc(Oc3c(F)cc(NC(=O)NC4CC4)c(Cl)c3F)c2cc1C(=O)NCC#N` [IIIb-45] was 5000 to 10000 nM.

The subject of the next data set is pancreatic cancer cell line (BXPC3). The experiment in a line: tumor cell proliferation inhibition (CTG), pancreatic cancer cell line. As to conditions: Homo sapiens, BXPC-3, 72 hours. It is filed as cell-based.
Compound `NC(=O)c1cc2c(Oc3c(F)cc(NC(=O)NC4CC4)c(Cl)c3F)ccnc2cc1OCCF` [IIIb-55] yielded a half-maximal inhibitory concentration (IC50) below 5000 nM.
`COc1cc2nccc(Oc3c(F)cc(NC(=O)NC4CC4)c(Cl)c3F)c2cc1C(=O)NCCC#N` [IIIb-50] showed an IC50 below 5000 nM.
Still for that read-out and setting: with `COc1cc2nccc(Oc3c(F)cc(NC(=O)NC4CC4)c(Cl)c3F)c2cc1C(=O)NCC#N` [IIIb-45] the figure was below 5000 nM.

The next data set addresses RET (Homo sapiens (Human), UniProt P07949). The experiment in a line: kinase inhibition, Mobility-Shift Assay. It is filed as biochemical. As to conditions: 23 μM ATP.
Turning to `NC(=O)c1cc2c(Oc3c(F)cc(NC(=O)NC4CC4)c(Cl)c3F)ccnc2cc1OCCF` [IIIb-55], the IC50 lay within 5 to 10 nM.
For `COc1cc2nccc(Oc3c(F)cc(NC(=O)NC4CC4)c(Cl)c3F)c2cc1C(=O)NCCC#N` [IIIb-50], the IC50 was below 5 nM.
Same read-out and setting: the value for `COc1cc2nccc(Oc3c(F)cc(NC(=O)NC4CC4)c(Cl)c3F)c2cc1C(=O)NCC#N` [IIIb-45] was below 5 nM.

The next data set has as its target hERG potassium channels (Homo sapiens (Human), UniProt Q12809). The experiment in a line: in vitro inhibitory effect of hERG, whole-cell patch clamp. It is filed as cell-based. The following applies: whole-cell recording, room temperature. For orientation: Block of hERG is tested as a sign of cardiac risk.
With `NC(=O)c1cc2c(Oc3c(F)cc(NC(=O)NC4CC4)c(Cl)c3F)ccnc2cc1OCCF` [IIIb-55], the IC50 was above 30000 nM.
Same read-out and setting: the value for `COc1cc2nccc(Oc3c(F)cc(NC(=O)NC4CC4)c(Cl)c3F)c2cc1C(=O)NCCC#N` [IIIb-50] was above 30000 nM; that for `COc1cc2nccc(Oc3c(F)cc(NC(=O)NC4CC4)c(Cl)c3F)c2cc1C(=O)NCC#N` [IIIb-45] was above 30000 nM.

A further data set concerns the target VEGFR3 (FLT4) (Homo sapiens (Human), UniProt P35916). Description: kinase inhibition, Mobility-Shift Assay. It counts as biochemical. As to conditions: 84 μM ATP.
Turning to `NC(=O)c1cc2c(Oc3c(F)cc(NC(=O)NC4CC4)c(Cl)c3F)ccnc2cc1OCCF` [IIIb-55], the IC50 was below 5 nM.
As for `COc1cc2nccc(Oc3c(F)cc(NC(=O)NC4CC4)c(Cl)c3F)c2cc1C(=O)NCCC#N` [IIIb-50], the IC50 was below 5 nM.
`COc1cc2nccc(Oc3c(F)cc(NC(=O)NC4CC4)c(Cl)c3F)c2cc1C(=O)NCC#N` [IIIb-45]: the concentration for half-maximal inhibition (IC50) is below 5 nM.

In another data set the test system is lung cancer cell line (A549). The experiment in a line: tumor cell proliferation inhibition (CTG), lung cancer cell line. It counts as cell-based. The following applies: Homo sapiens, 72 hours.
On to `NC(=O)c1cc2c(Oc3c(F)cc(NC(=O)NC4CC4)c(Cl)c3F)ccnc2cc1OCCF` [IIIb-55], for which the IC50 was below 2500 nM.
On the same count and under the same terms, with `COc1cc2nccc(Oc3c(F)cc(NC(=O)NC4CC4)c(Cl)c3F)c2cc1C(=O)NCCC#N` [IIIb-50] the figure was below 2500 nM.
Same read-out and setting: the value for `COc1cc2nccc(Oc3c(F)cc(NC(=O)NC4CC4)c(Cl)c3F)c2cc1C(=O)NCC#N` [IIIb-45] was below 2500 nM.

The next data set relates to kidney cancer cell line (Caki-1). The experiment in a line: tumor cell proliferation inhibition (CTG), kidney cancer cell line. It is filed as cell-based. The following applies: Homo sapiens, 72 hours, read-out: Caki-1 (renal cancer) IC50.
In the case of `NC(=O)c1cc2c(Oc3c(F)cc(NC(=O)NC4CC4)c(Cl)c3F)ccnc2cc1OCCF` [IIIb-55], the IC50 is below 2500 nM.
For the compound `COc1cc2nccc(Oc3c(F)cc(NC(=O)NC4CC4)c(Cl)c3F)c2cc1C(=O)NCCC#N` [IIIb-50], the IC50 is below 2500 nM.
Still for that read-out and setting: with `COc1cc2nccc(Oc3c(F)cc(NC(=O)NC4CC4)c(Cl)c3F)c2cc1C(=O)NCC#N` [IIIb-45] the figure was below 2500 nM.

A further data set relates to leukemia cell line (K562). Description: tumor cell proliferation inhibition (CTG), leukemia cell line. It counts as cell-based. As to conditions: Homo sapiens, 72 hours.
As to `NC(=O)c1cc2c(Oc3c(F)cc(NC(=O)NC4CC4)c(Cl)c3F)ccnc2cc1OCCF` [IIIb-55], the half-inhibitory concentration (IC50) is below 5000 nM.
The compound `COc1cc2nccc(Oc3c(F)cc(NC(=O)NC4CC4)c(Cl)c3F)c2cc1C(=O)NCCC#N` [IIIb-50] came in with a half-maximal inhibitory concentration (IC50) below 5000 nM.
`COc1cc2nccc(Oc3c(F)cc(NC(=O)NC4CC4)c(Cl)c3F)c2cc1C(=O)NCC#N` [IIIb-45] gave an IC50 below 5000 nM.

Another data set deals with gastric cancer cell line (SNU16). Description: tumor cell proliferation inhibition (CTG), gastric cancer cell line. As to conditions: Homo sapiens, SNU-16, 72 hours, read-out: SUN16 IC50. It is filed as cell-based.
On to `NC(=O)c1cc2c(Oc3c(F)cc(NC(=O)NC4CC4)c(Cl)c3F)ccnc2cc1OCCF` [IIIb-55], for which the half-maximal inhibitory concentration (IC50) is below 5000 nM.
The same measure, in the same setting: with `COc1cc2nccc(Oc3c(F)cc(NC(=O)NC4CC4)c(Cl)c3F)c2cc1C(=O)NCCC#N` [IIIb-50] the figure was below 5000 nM; with `COc1cc2nccc(Oc3c(F)cc(NC(=O)NC4CC4)c(Cl)c3F)c2cc1C(=O)NCC#N` [IIIb-45], below 5000 nM.

For a further data set, the target named is VEGFR2 (KDR) (Homo sapiens (Human), UniProt P35968). Description: kinase inhibition, Mobility-Shift Assay. It is filed as biochemical. As to conditions: VEGFR2, 92 μM ATP.
Consider `NC(=O)c1cc2c(Oc3c(F)cc(NC(=O)NC4CC4)c(Cl)c3F)ccnc2cc1OCCF` [IIIb-55], for which the IC50 was below 5 nM.
Same read-out and setting: with `COc1cc2nccc(Oc3c(F)cc(NC(=O)NC4CC4)c(Cl)c3F)c2cc1C(=O)NCCC#N` [IIIb-50] the figure was below 5 nM; with `COc1cc2nccc(Oc3c(F)cc(NC(=O)NC4CC4)c(Cl)c3F)c2cc1C(=O)NCC#N` [IIIb-45], below 5 nM.

Another data set has as its target FGFR2 (Homo sapiens (Human), UniProt P21802). Description: kinase inhibition, Mobility-Shift Assay. It counts as biochemical. As to conditions: 1.9 μM ATP.
`NC(=O)c1cc2c(Oc3c(F)cc(NC(=O)NC4CC4)c(Cl)c3F)ccnc2cc1OCCF` [IIIb-55]: the 50% inhibitory concentration (IC50) is below 50 nM.
In the case of `COc1cc2nccc(Oc3c(F)cc(NC(=O)NC4CC4)c(Cl)c3F)c2cc1C(=O)NCCC#N` [IIIb-50], the half-inhibitory concentration (IC50) is below 50 nM.
For `COc1cc2nccc(Oc3c(F)cc(NC(=O)NC4CC4)c(Cl)c3F)c2cc1C(=O)NCC#N` [IIIb-45], the IC50 was below 50 nM.

Another data set deals with cervical cancer cell lines (Hela). The experiment in a line: tumor cell proliferation inhibition (CTG), cervical cancer cell line. It counts as cell-based. The following applies: Homo sapiens, 72 hours.
As for `NC(=O)c1cc2c(Oc3c(F)cc(NC(=O)NC4CC4)c(Cl)c3F)ccnc2cc1OCCF` [IIIb-55], the half-inhibitory concentration (IC50) is below 5000 nM.
Same read-out and setting: the value for `COc1cc2nccc(Oc3c(F)cc(NC(=O)NC4CC4)c(Cl)c3F)c2cc1C(=O)NCCC#N` [IIIb-50] was below 5000 nM; that for `COc1cc2nccc(Oc3c(F)cc(NC(=O)NC4CC4)c(Cl)c3F)c2cc1C(=O)NCC#N` [IIIb-45] was below 5000 nM.

Tested on in the next data set: not listed separately
Description: MTD toxicity test in rats. It is filed as in vivo. As to conditions: rat, in vivo, 150 mg/kg.
`NC(=O)c1cc2c(Oc3c(F)cc(NC(=O)NC4CC4)c(Cl)c3F)ccnc2cc1OCCF` [IIIb-55]: the “MTD toxicity test, clinical outcome” value is on record as “no abnormalities such as death”.
With `COc1cc2nccc(Oc3c(F)cc(NC(=O)NC4CC4)c(Cl)c3F)c2cc1C(=O)NCCC#N` [IIIb-50], the “MTD toxicity test, clinical outcome” value is reported as “no abnormalities such as death”.
As to `COc1cc2nccc(Oc3c(F)cc(NC(=O)NC4CC4)c(Cl)c3F)c2cc1C(=O)NCC#N` [IIIb-45], the “MTD toxicity test, clinical outcome” value is reported as “no abnormalities such as death”.

Staying with this data set, now noted: rats, 150 mg/kg, QD, 14 days; heart, liver, lungs, kidneys, stomach, intestines and other organs.
Turning to `NC(=O)c1cc2c(Oc3c(F)cc(NC(=O)NC4CC4)c(Cl)c3F)ccnc2cc1OCCF` [IIIb-55], the “autopsy results of organs” value is on record as “did not reveal any abnormal changes”.
Still for that read-out and setting: with `COc1cc2nccc(Oc3c(F)cc(NC(=O)NC4CC4)c(Cl)c3F)c2cc1C(=O)NCCC#N` [IIIb-50] the entry was “did not reveal any abnormal changes”; with `COc1cc2nccc(Oc3c(F)cc(NC(=O)NC4CC4)c(Cl)c3F)c2cc1C(=O)NCC#N` [IIIb-45], “did not reveal any abnormal changes”.
